Values after ≈ are worked out from the molar mass of the structure shown. “Also recorded” adds a separate entry of the source.

Data set [1] can be described thus: DVS and isotherm curves, moisture absorption. It counts as physicochemical.
A short description of data set [2]: Hot stage XRPD, crystal transformation on heating. It counts as physicochemical.
Data set [3] is described as follows: Crystal competition experiment in water. It counts as physicochemical. The settings on record: mixture of forms I-IX suspended in water, room temperature, 4 and 7 days, XRD.
Data set [4] relates to p-STAT5 under IL-15 stimulation in PBMC (JAK-STAT pathway). Briefly: p-STAT5 ELISA in IL-15 stimulated hPBMC cells. The format is cell-based, human. The settings on record: 45 min compound, 30 min IL-15, ELISA. As to the method: Based on the mechanism of JAK-STAT pathway, the effect of the compounds on the JAK-STAT pathway were evaluated by using cytokine IL-15 to stimulate hPBMC cells, and using the downstream STAT5 phosphorylation level as the detection index.
1. PBMC cell counting plate: 90 μL PBMC was seeded in a 96-well plate (PBMC cell density 80,000/well).
2. Treatment with test compounds: After cells being seeded, drug treatment was carried out immediately. The drugs to be tested at 5 μL/well (final concentrations 1, 0.5, 0.1, 0.05, 0.01, and 0.005 μM) were incubated at 37° C. for 45 min.
3. Cytokine IL-15 stimulation: The cells were stimulated by 5 μL IL-15, and incubated at 37° C. for 30 min.
4. Protein sample collection: The cells were collected in a centrifuge tube and centrifuged for 5 minutes. The supernatant was discarded and cells were lysed with 1× Cell Extraction Buffer PTR.
5. p-STAT5 detection: Perform detection according to the requirements of the ELISA kit.
Experimental results: IC50 values of compounds on p-STAT5 under IL-15 stimulation in PBMC

Data set [5] deals with collagen-induced arthritis model in mice. The data set can be described thus: Collagen-induced arthritis model in mice (mCIA). The format is in vivo, DBA/1J mice. Particulars: 50 mg/kg once a day, FIG. 77. How it is done:
1. Construction of collagen-induced arthritis model in mice (mCIA) Experimental purpose: To test the immunosuppressive activity of YZ001052 in the mCIA model. PF-06651600 was used as a positive control compound.
Complete and incomplete Freund's adjuvants with chicken type II collagen solution were mixed in equal proportions to form emulsions. Except for the blank control group, a mixture of complete Freund's adjuvant and chicken type II collagen solution was injected subcutaneously into the base of the tail and thigh of mice on Day 0. Each mouse was injected subcutaneously with 100 μL at the base of the tail, and injected 50 μL subcutaneously at the base of both thighs (primary immunization). On day 21, mice were injected subcutaneously with 200 μL of a mixture of incomplete Freund's adjuvant and chicken type II collagen as a booster injection (second immunization). Arthritis was considered to occur if the clinical score of at least one limb was >2 points. Paw thickness measurement: Using a vernier caliper to measure the thickness of the left and right hind feet of the mouse and record it, which is the degree of paw swelling. The detection frequency was once every 3 days.

In a further data set the test system is SRBC mouse model. Briefly: SRBC-induced delayed-type hypersensitivity (DTH) in mice. It counts as in vivo, Balb/c mice. The settings on record: 100 mg/kg gavage once a day, day 0 to day 6, FIG. 76. How it is done:
Drug formulation: The compound was added to 0.5% CMC-Na solution to formulate a drug suspension (dosage is 10 mg/mL).
Induction and administration of delayed-type hypersensitivity (DTH): 30 male Balb/c mice were weighed and randomly divided into 6 groups according to body weight, with 5 mice in each group. The experimental period lasted for 7 days. On day 0, mice were sensitized by subcutaneous injection of sheep red blood cells (SRBC). The mice were performed gavage administration at 100 mg/kg (once a day) from day 0 to day 6. On day 6, the mice were injected SRBC into the right hind foot pad for challenge. Measurements were taken on the 7th day of the experiment, and the experiment was concluded.
Pharmacodynamic detection indicators of disease models: the detection and observation indicators are the redness and swelling degree and thickness of the paw pads of SRBC-induced mice. The thickness of the right paw was measured on day 6 before the SRBC injection challenge as the baseline. The thickness of the right paw was measured again at the end of the experiment, the difference in paw thickness before and after the second injection was calculated.
Statistical analysis: The experimental data were expressed as mean±standard deviation (Mean±SD). All data were statistically analyzed using T-test, with P<0.05 considered statistically significant.

A short description of data set [6]: Crystal competition experiment in anhydrous ethanol. It counts as physicochemical. The settings on record: mixture of forms I-IX suspended in anhydrous ethanol, room temperature, 4 days, XRD. How it is done: 2 mg each of the aromatic heterocyclic compound of crystal form I, crystal form II, crystal form III, crystal form IV, crystal form V, crystal form VI, crystal form VII, crystal form VIII and crystal form IX was added to 3 ml of anhydrous ethanol to form a suspension.

Data set [7] is described as follows: Solubility at different pH values. The format is physicochemical. The settings on record: thermodynamic from solid. How it is done:
Excess samples of crystal form I were respectively added to 10 mL of solutions with different pH value. After being shaken for 24 hours by a constant temperature shaker at 32° C. at 100 rpm, the saturated solutions (with undissolved solids at the bottom) were centrifuged and filtered, then determined linear solutions (formulated with reference substances) with different concentrations and saturated solutions with different pH values under the content item. The solubility of the samples at different pH values were calculated using the standard curve as follows, see FIG. 75 for details.

A short description of data set [8]: Influencing factors test of crystal form (high temperature, high humidity). It counts as physicochemical. How it is done: (§1) Samples of crystal form I produced in Example 15 were taken, which were 15 samples of 50 mg each, and sealed with aluminum foil bags. The crystal stability of the above samples were studied under high temperature (60±2° C.), high humidity (RH90%±5%), long-term test (25° C.±2° C., RH 60%±5%) and accelerated test (40° C.±2° C., RH 75%±5%) conditions. […] The long-term and accelerated 3-month crystal form is stable.

Data set [9] in a line: Stability test of crystal form (long-term, accelerated). The format is physicochemical. How it is done:
as §1

Consider `C=CC(=O)N1CCc2c(c(-c3ccnc4[nH]ccc34)nn2C)C1` [crystal form II, 1-(1-methyl-3-(1H-pyrrolo[2,3-b]pyridin-4-yl)-1,4,6,7-tetrahydro-5H-pyrazolo[4,3-c]pyridin-5-yl)prop-2-en-1-one], for which the moisture absorption rate result in [1] is on record as “about 2.4%”. The “crystal transformation in hot stage XRPD” value in [2] is “transformed into crystal form I at 150 °C”.

On to `C=CC(=O)N1CCc2c(c(-c3ccnc4[nH]ccc34)nn2C)C1` [crystal form VIII, 1-(1-methyl-3-(1H-pyrrolo[2,3-b]pyridin-4-yl)-1,4,6,7-tetrahydro-5H-pyrazolo[4,3-c]pyridin-5-yl)prop-2-en-1-one], for which the moisture absorption rate result in data set [1] is “about 1.3%”. Further, the “crystal transformation in hot stage XRPD” value in [2] was “most of the crystals were transformed into crystal form I at 150 °C”.

For `C=CC(=O)N1CCc2c(c(-c3ccnc4[nH]ccc34)nn2C)C1` [crystal form III, 1-(1-methyl-3-(1H-pyrrolo[2,3-b]pyridin-4-yl)-1,4,6,7-tetrahydro-5H-pyrazolo[4,3-c]pyridin-5-yl)prop-2-en-1-one], in data set [3], the “crystal stability in water” value is given as “good crystal stability in water”. The moisture absorption rate entry in data set [1] is reported as “about 2.2%”. In addition, the “crystal transformation in hot stage XRPD” value in data set [2] was “no crystal transformation at 140 °C”.

Turning to `C=CC(=O)N1C[C@H](Nc2ncnc3[nH]ccc23)CC[C@@H]1C` [PF-06651600, reference compound], in [4], the half-inhibitory concentration (IC50) is 85 nM. Besides, the paw swelling result in [5] (CIA mice) was “improved to varying degrees”. In addition, the arthritis score result in data set [5] (compared with the model group) was “significantly decreased”.

For the compound `C=CC(=O)N1CCc2c(c(-c3ccnc4[nH]ccc34)nn2C)C1` [crystal form IX, 1-(1-methyl-3-(1H-pyrrolo[2,3-b]pyridin-4-yl)-1,4,6,7-tetrahydro-5H-pyrazolo[4,3-c]pyridin-5-yl)prop-2-en-1-one], in data set [2], the “crystal transformation in hot stage XRPD” value was “transformed into crystal form I at 155 °C”.

Take `C=CC(=O)N1Cc2c(-c3ccnc4[nH]ccc34)nn(C(C)C)c2C[C@H]1C` [YZ001085]: the “immunosuppressive effect on SRBC-induced delayed-type hypersensitivity (right paw thickness)” value (“immunosuppressive effect” below) in the data set with SRBC mouse model is recorded as “significant immunosuppressive effects”.

For the compound `C=CC(=O)N1CCc2c(c(-c3ccnc4[nH]ccc34)nn2C)C1` [crystal form I, 1-(1-methyl-3-(1H-pyrrolo[2,3-b]pyridin-4-yl)-1,4,6,7-tetrahydro-5H-pyrazolo[4,3-c]pyridin-5-yl)prop-2-en-1-one], the “crystal stability in ethanol” value in [6] is given as “good crystal stability in the presence of ethanol”. Also, the “crystal stability in water” value in [3] is given as “good crystal stability in water”. Besides, the solubility at 24 h in data set [7] (aqueous solution of pH 1.0, simulated gastric fluid, pH 1.0, 32° C.) is 14500 µg/mL (≈ 47300 µM); in [7] (aqueous solution of pH 2.0, simulated gastric fluid, pH 2.0, 32° C.), 2740 µg/mL (≈ 8900 µM); in data set [7] (aqueous solution of pH 3.8, aqueous buffer, pH 3.8, 32° C.), 118 µg/mL (≈ 385 µM); in [7] (aqueous solution of pH 4.5, aqueous buffer, pH 4.5, 32° C.) it was 68.6 µg/mL (≈ 223 µM); in data set [7] (aqueous solution of pH 6.8, aqueous buffer, pH 6.8, 32° C.), 58.9 µg/mL (≈ 192 µM); in [7] (aqueous solution of pH 8.0, aqueous buffer, pH 8.0, 32° C.), 60.8 µg/mL (≈ 198 µM). Also, in data set [7] (water, 32° C.), the concentration in solution (solubility at 24 h) was 53.2 µg/mL (≈ 173 µM). Further, in [1], the moisture absorption rate entry is “about 2.4%”. Further, the “Crystal form test result” value in data set [8] (0 days) is listed as “form I”; in [8] (high humidity RH90% ± 5%, 5 days), “form I”; in data set [8] (high humidity RH90% ± 5%, 15 days), “stable; also recorded: form I”; in data set [8] (high temperature 60 ± 2° C., 5 days), “form I”; in [8] (high temperature 60 ± 2° C., 15 days) it was “stable; also recorded: form I”; in data set [9] (0 days), “form I”. Also, the “Crystal form test result” value in data set [9] (accelerated 40° C. ± 2° C., RH 75% ± 5%, 1 month) is reported as “form I”; in data set [9] (accelerated 40° C. ± 2° C., RH 75% ± 5%, 3 month), “stable; also recorded: form I”; in data set [9] (long-term 25° C. ± 2° C., RH 60% ± 5%, 1 month), “form I”; in data set [9] (long-term 25° C. ± 2° C., RH 60% ± 5%, 3 month), “stable; also recorded: form I”.

As to `C=CC(=O)N1CCc2[nH]nc(-c3ccnc4[nH]ccc34)c2C1` [YZ001065], in the data set with SRBC mouse model, the “immunosuppressive effect” value was “significant immunosuppressive effects”.

With `C=CC(=O)N1CCc2c(c(-c3ccnc4[nH]ccc34)nn2C)C1` [crystal form VII, 1-(1-methyl-3-(1H-pyrrolo[2,3-b]pyridin-4-yl)-1,4,6,7-tetrahydro-5H-pyrazolo[4,3-c]pyridin-5-yl)prop-2-en-1-one], the moisture absorption rate result in data set [1] is recorded as “about 1.3%”. Also, the “crystal transformation in hot stage XRPD” value in data set [2] was “transformed to crystal form I at 150 °C”.

For the compound `C=CC(=O)N1CCc2c(c(-c3ccnc4[nH]ccc34)nn2C)C1` [crystal form VI, 1-(1-methyl-3-(1H-pyrrolo[2,3-b]pyridin-4-yl)-1,4,6,7-tetrahydro-5H-pyrazolo[4,3-c]pyridin-5-yl)prop-2-en-1-one], the “crystal transformation in hot stage XRPD” value in [2] was “transformed into crystal form I at 150 °C”.

For `C=C(F)C(=O)N1CCc2c(c(-c3ccnc4[nH]ccc34)nn2C)C1` [YZ001054], the “immunosuppressive effect” value with SRBC mouse model was “significant immunosuppressive effects”.

As a reminder, the IC50 is the midpoint of a concentration-inhibition curve. Broadly, the solubility is the dissolved amount per volume that the medium holds. A high value points to a readily soluble substance.

These data come from patent US20260085076A1, “CRYSTAL FORM OF AROMATIC HETEROCYCLIC COMPOUND, COMPOSITION THEREOF, PRODUCTION METHOD THEREOF AND USES THEREOF” (Hangzhou Yuhong Pharmaceutical Technology Co., Ltd., priority 2023, published 2026).
